Measurements from patent publication US4409210A, “Antibiotic compound” (priority 1982, dated 1983).
Converted amounts (≈) assume the structure as drawn.

Legend:
Assay type in all cases: cell-based
Proteus vulgaris A9436 = assay: MIC, serial two-fold dilution method (aerobic); conditions: Proteus vulgaris A9436; Mueller-Hinton agar; inoculum 10^4; read-out: minimum inhibitory concentration (MIC)
[1] = tested on: Staphylococcus aureus 209P; assay: MIC, serial two-fold dilution method (aerobic); conditions: Staphylococcus aureus 209P; Mueller-Hinton agar; inoculum 10^4; read-out: minimum inhibitory concentration (MIC)
[2] = tested on: Bacillus anthracis IID-115; assay: microbe, parasite or virus in culture; conditions: Bacillus anthracis, IID115, read-out: minimum inhibitory concentration (MIC)
[3] = tested on: Staphylococcus aureus Smith; assay: MIC, serial two-fold dilution method (aerobic); conditions: Staphylococcus aureus Smith; Mueller-Hinton agar; inoculum 10^4; read-out: minimum inhibitory concentration (MIC)
[4] = tested on: Fusobacterium necrophorum A20013; assay: MIC, serial two-fold dilution method (anaerobic); conditions: Fusobacterium necrophorum A20013; GAM agar medium; inoculum 10^7-10^8; read-out: minimum inhibitory concentration (MIC)
[5] = tested on: Bacteroides fragilis A22695; assay: MIC, serial two-fold dilution method (anaerobic); conditions: Bacteroides fragilis A22695; GAM agar medium; inoculum 10^7-10^8; read-out: minimum inhibitory concentration (MIC)
[6] = tested on: Bacteroides fragilis A22053; assay: MIC, serial two-fold dilution method (anaerobic); conditions: Bacteroides fragilis A22053; GAM agar medium; inoculum 10^7-10^8; read-out: minimum inhibitory concentration (MIC)
Escherichia coli NIHJ = assay: MIC, serial two-fold dilution method (aerobic); conditions: Escherichia coli NIHJ; Mueller-Hinton agar; inoculum 10^4; read-out: minimum inhibitory concentration (MIC)
[7] = tested on: Clostridium acidiurici A9560; assay: MIC, serial two-fold dilution method (anaerobic); conditions: Gottschalkia acidurici; Clostridium acidiurici A9560; GAM agar medium; inoculum 10^7-10^8; read-out: minimum inhibitory concentration (MIC)
[8] = tested on: Bacteroides fragilis CUH-24; assay: MIC, serial two-fold dilution method (anaerobic); conditions: CUH24; Bacteroides fragilis CUH-24; GAM agar medium; inoculum 10^7-10^8; read-out: minimum inhibitory concentration (MIC)
[9] = tested on: Peptococcus magnas A21676; assay: MIC, serial two-fold dilution method (anaerobic); conditions: Peptococcus magnas A21676; GAM agar medium; inoculum 10^7-10^8; read-out: minimum inhibitory concentration (MIC)
E. coli NIHJ = assay: Antibiotic sensitivity, paper disc-agar diffusion method; set-up: key: S (sensitive); R (resistant); I (intermediate); conditions: nutrient agar, 2 day's incubation at 28° C., Difco discs, amount/disc per antibiotic
[10] = tested on: Bacteroides fragilis A22533; assay: MIC, serial two-fold dilution method (anaerobic); conditions: Bacteroides fragilis A22533; GAM agar medium; inoculum 10^7-10^8; read-out: minimum inhibitory concentration (MIC)
Micrococcus flavus D-12 = assay: MIC, serial two-fold dilution method (aerobic); conditions: D12; Micrococcus flavus D-12; Mueller-Hinton agar; inoculum 10^4; read-out: minimum inhibitory concentration (MIC)
[11] = tested on: Staphylococcus aureus A22421; assay: MIC, serial two-fold dilution method (aerobic); conditions: Staphylococcus aureus A22421; Mueller-Hinton agar; inoculum 10^4; read-out: minimum inhibitory concentration (MIC)
[12] = tested on: Bacteroides fragilis A20929; assay: MIC, serial two-fold dilution method (anaerobic); conditions: Bacteroides fragilis A20929; GAM agar medium; inoculum 10^7-10^8; read-out: minimum inhibitory concentration (MIC)
[13] = tested on: Fusobacterium nucleatum A21906; assay: MIC, serial two-fold dilution method (anaerobic); conditions: Fusobacterium nucleatum A21906; GAM agar medium; inoculum 10^7-10^8; read-out: minimum inhibitory concentration (MIC)
[14] = tested on: Clostridium ramosum A21970; assay: MIC, serial two-fold dilution method (anaerobic); conditions: Thomasclavelia ramosa; Clostridium ramosum A21970; GAM agar medium; inoculum 10^7-10^8; read-out: minimum inhibitory concentration (MIC)
[15] = tested on: Bacteroides fragilis A20928-1; assay: MIC, serial two-fold dilution method (anaerobic); conditions: A209281; Bacteroides fragilis A20928-1; GAM agar medium; inoculum 10^7-10^8; read-out: minimum inhibitory concentration (MIC)
[16] = tested on: Clostridium difficile A21675; assay: MIC, serial two-fold dilution method (anaerobic); conditions: Clostridioides difficile; Clostridium difficile A21675; GAM agar medium; inoculum 10^7-10^8; read-out: minimum inhibitory concentration (MIC)
Protocol: (§1) The minimum inhibitory concentration (MIC) of Bu-2517 was determined for a variety of aerobic and anaerobic bacteria by the serial two-fold dilution method using a multi-inoculating apparatus. Mueller-Hinton agar was generally used for aerobic bacteria, GC medium (Eiken) for fastidious aerobic organisms such as streptococci, Neisseria and Haemophilus species, and GAM agar medium (Nissui) for anaerobic bacteria. The inoculum size was adjusted to 10^6 CFU/ml for streptococci, Neisseria and Haemophilus species, 10^4 for other aerobic bacteria and 10^7 -10^8 for all anaerobic organisms. Amphomycin, ampicillin, chloramphenicol, clindamycin, erthromycin, kanamycin and vancomycin were used as reference antibiotics.

[17] = tested on: Clostridium septicum A21869; assay: MIC, serial two-fold dilution method (anaerobic); conditions: Clostridium septicum A21869; GAM agar medium; inoculum 10^7-10^8; read-out: minimum inhibitory concentration (MIC)
Protocol: as §1

[18] = tested on: Clostridium chauvoei A9561; assay: MIC, serial two-fold dilution method (anaerobic); conditions: Clostridium chauvoei A9561; GAM agar medium; inoculum 10^7-10^8; read-out: minimum inhibitory concentration (MIC)
Protocol: as §1

[19] = tested on: Clostridium difficile A21972; assay: MIC, serial two-fold dilution method (anaerobic); conditions: Clostridioides difficile; Clostridium difficile A21972; GAM agar medium; inoculum 10^7-10^8; read-out: minimum inhibitory concentration (MIC)
Protocol: as §1

O=C(N[C@H](CO)[C@H](O)c1ccc([N+](=O)[O-])cc1)C(Cl)Cl [Chloramphenicol]
MIC (Proteus vulgaris A9436): 3.1 µg/mL (≈ 9.59 µM) | MIC [1]: 3.1 µg/mL (≈ 9.59 µM) | MIC [2]: 3.1 µg/mL (≈ 9.59 µM) | MIC [3]: 3.1 µg/mL (≈ 9.59 µM) | MIC [4]: 6.3 µg/mL (≈ 19.5 µM) | MIC [5]: 3.1 µg/mL (≈ 9.59 µM) | MIC [6]: 3.1 µg/mL (≈ 9.59 µM) | MIC (Escherichia coli NIHJ): 0.8 µg/mL (≈ 2.48 µM) | MIC [7]: 6.3 µg/mL (≈ 19.5 µM) | MIC [8]: 1.6 µg/mL (≈ 4.95 µM) | MIC [9]: 1.6 µg/mL (≈ 4.95 µM) | Sensitivity E. coli NIHJ (E. coli NIHJ): S | MIC [10]: 3.1 µg/mL (≈ 9.59 µM) | MIC (Micrococcus flavus D-12): 1.6 µg/mL (≈ 4.95 µM) | MIC [11]: 6.3 µg/mL (≈ 19.5 µM) | MIC [12]: 3.1 µg/mL (≈ 9.59 µM) | MIC [13]: 6.3 µg/mL (≈ 19.5 µM) | MIC [14]: 6.3 µg/mL (≈ 19.5 µM) | MIC [15]: 3.1 µg/mL (≈ 9.59 µM) | MIC [16]: 3.1 µg/mL (≈ 9.59 µM) | MIC [17]: 6.3 µg/mL (≈ 19.5 µM) | MIC [18]: 6.3 µg/mL (≈ 19.5 µM) | MIC [19]: 3.1 µg/mL (≈ 9.59 µM)

CC[C@H]1OC(=O)[C@H](C)[C@@H](O[C@H]2C[C@@](C)(OC)[C@@H](O)[C@H](C)O2)[C@H](C)[C@@H](O[C@@H]2O[C@H](C)C[C@H](N(C)C)[C@H]2O)[C@](C)(O)C[C@@H](C)C(=O)[C@H](C)[C@@H](O)[C@]1(C)O [Erythromycin]
MIC (Proteus vulgaris A9436): 100 µg/mL (≈ 136 µM) | MIC [1]: 0.1 µg/mL (≈ 0.136 µM) | MIC [2]: 0.4 µg/mL (≈ 0.545 µM) | MIC [3]: 0.2 µg/mL (≈ 0.273 µM) | MIC [4]: > 100 µg/mL | MIC [5]: 3.1 µg/mL (≈ 4.22 µM) | MIC [6]: 3.1 µg/mL (≈ 4.22 µM) | MIC (Escherichia coli NIHJ): 100 µg/mL (≈ 136 µM) | MIC [7]: 1.6 µg/mL (≈ 2.18 µM) | MIC [8]: > 100 µg/mL | MIC [9]: 0.8 µg/mL (≈ 1.09 µM) | Sensitivity E. coli NIHJ (E. coli NIHJ): R | MIC [10]: 0.4 µg/mL (≈ 0.545 µM) | MIC (Micrococcus flavus D-12): < 0.05 µg/mL | MIC [11]: 6.3 µg/mL (≈ 8.58 µM) | MIC [12]: 1.6 µg/mL (≈ 2.18 µM) | MIC [13]: 1.6 µg/mL (≈ 2.18 µM) | MIC [14]: 0.1 µg/mL (≈ 0.136 µM) | MIC [15]: 0.013 µg/mL (≈ 0.0177 µM) | MIC [16]: > 100 µg/mL | MIC [17]: 0.8 µg/mL (≈ 1.09 µM) | MIC [18]: 1.6 µg/mL (≈ 2.18 µM) | MIC [19]: 3.1 µg/mL (≈ 4.22 µM)
